According to ChEMBL document CHEMBL5230124, “Advances of CCR5 antagonists: From small molecules to macromolecules” (Eur J Med Chem, 2020):
Converted amounts (≈) assume the structure as drawn.

Key:
[1] = Antifertility activity against human Spermatozoa assessed as decrease in sperm motility for 120 mins by hematocytometer analysis; type: functional, cell-based
[2] = AUC in Wistar rat at 10 mg/kg, IM administered as H3-lableled compound by scintillation counting method; type: ADME, organism-based; set-up: dose 10 mg/kg, route im; conditions: in vivo
[3] = Terminal half life in Wistar rat at 10 mg/kg, IM administered as H3-lableled compound by scintillation counting method; type: ADME, organism-based; conditions: in vivo
[4] = Half life in human plasma; type: ADME, cell-free

CCN(Cc1ccccc1)C(=O)C1CCN(CCCN(C(=O)C2CCN(C(C)=O)CC2)c2ccc(C)c(Cl)c2)CC1
EC50 [1]: 1500 mg/L (≈ 2580 µM)

Cc1nnc(C(C)C)n1[C@H]1C[C@H]2CC[C@@H](C1)N2CC[C@H](NC(=O)C1CCC(F)(F)CC1)c1ccccc1 [MARAVIROC]
AUC [2]: 0.56717 µg·h/mL
beta t1/2 [3]: 53.23 h

CCCCOCCOc1ccc(-c2ccc3c(c2)/C=C(/C(=O)Nc2ccc([S@@+]([O-])Cc4cncn4CCC)cc2)CCCN3CC(C)C)cc1 [CENICRIVIROC]
half-life [4]: 30 h
